According to the CheMixHub viscosity set:

Experiment: xn = mol fraction of the nth substance listed

C1=CCCCC1 + C1CCCCC1
303.15 K, 101 kPa
Settings | viscosity [mPa·s]
x1 = 0.1133 | 0.772
x1 = 0.2435 | 0.745
x1 = 0.3293 | 0.725
x1 = 0.3919 | 0.72
x1 = 0.4866 | 0.684
x1 = 0.582 | 0.678
x1 = 0.7181 | 0.654
x1 = 0.8663 | 0.62

C=C(C)C(=O)OCC + C1CCCCC1
viscosity [mPa·s], 101 kPa
Settings | 298.15 K | 308.15 K
x1 = 0.0581 | 0.837 | 0.711
x1 = 0.1534 | 0.768 | 0.651
x1 = 0.2549 | 0.711 | 0.601
x1 = 0.3548 | 0.668 | 0.564
x1 = 0.3935 | 0.655 | 0.552
x1 = 0.5465 | 0.619 | 0.52
x1 = 0.5568 | 0.618 | 0.518
x1 = 0.6264 | 0.61 | 0.511
x1 = 0.7559 | 0.606 | 0.506
x1 = 0.8548 | 0.614 | 0.51
x1 = 0.9399 | 0.628 | 0.52

CC1CCCCC1 + C1CCCCC1
303.15 K, 101 kPa
Settings | viscosity [mPa·s]
x2 = 0.0996 | 0.6425
x2 = 0.1991 | 0.6465
x2 = 0.2949 | 0.6574
x2 = 0.3948 | 0.6697
x2 = 0.497 | 0.6849
x2 = 0.6005 | 0.7041
x2 = 0.699 | 0.7258
x2 = 0.7978 | 0.7519
x2 = 0.8955 | 0.7854

CCCNCCC + C1CCCCC1
viscosity [mPa·s], 101 kPa
Settings | x1 = 0.01137 | x1 = 0.02125 | x1 = 0.03212 | x1 = 0.0414 | x1 = 0.05092 | x1 = 0.06219 | x1 = 0.07269 | x1 = 0.08114 | x1 = 0.09193
303.15 K | 0.8095 | 0.8028 | 0.7945 | 0.784 | 0.7745 | 0.7633 | 0.7535 | 0.7441 | 0.7334
313.15 K | 0.7072 | 0.6995 | 0.692 | 0.6827 | 0.6721 | 0.6596 | 0.649 | 0.6399 | 0.6296

CCOC(=O)c1ccccc1 + C1CCCCC1
viscosity [mPa·s], 101 kPa
Settings | x1 = 0.0779 | x1 = 0.1586 | x1 = 0.2454 | x1 = 0.3327 | x1 = 0.4305 | x1 = 0.5312 | x1 = 0.6374 | x1 = 0.751 | x1 = 0.868
303.15 K | 0.82 | 0.832 | 0.88 | 0.937 | 1.025 | 1.123 | 1.248 | 1.387 | 1.552
308.15 K | 0.78 | 0.801 | 0.84 | 0.89 | 0.96 | 1.047 | 1.157 | 1.295 | 1.439
313.15 K | 0.708 | 0.727 | 0.772 | 0.819 | 0.885 | 0.967 | 1.069 | 1.198 | 1.33

Cc1cccc([N+](=O)[O-])c1 + C1CCCCC1
303.15 K, 101.33 kPa
Settings | viscosity [mPa·s]
x1 = 0.206 | 0.93
x1 = 0.38 | 1.03
x1 = 0.593 | 1.25
x1 = 0.801 | 1.54

c1cscn1 + C1CCCCC1
298.15 K, 101 kPa
Settings | viscosity [mPa·s]
x1 = 0.1468 | 0.8439
x1 = 0.2448 | 0.7891
x1 = 0.4908 | 0.8119
x1 = 0.7468 | 0.8753
x1 = 0.8357 | 0.904
x1 = 0.8841 | 0.928
x1 = 0.9385 | 0.958

CC1CCCCC1 + C1CCOC1
303.15 K, 101.33 kPa
Settings | viscosity [mPa·s]
x2 = 0.111 | 0.604
x2 = 0.2072 | 0.576
x2 = 0.3062 | 0.548
x2 = 0.404 | 0.525
x2 = 0.4829 | 0.507
x2 = 0.504 | 0.503
x2 = 0.6018 | 0.487
x2 = 0.7067 | 0.47
x2 = 0.9006 | 0.447
